Measured values taken from patent US20110275094A1, “PHOSPHORYLATED FMS-RELATED TYROSINE KINASE 3 BIOMARKER ASSAY” (priority 2008, published 2011).
Like-named read-outs stand apart in the source and are kept apart here.

Assays:
[1] = AC220 phase I study, tolerability; assay type: in vivo; settings: QD, patients of phase I study
Source text: Thus, the pFLT3 ELISA of the invention successfully yielded useful pharmacodynamic data that not only guided the decision to change the dosing schedule from intermittent to continuous, but also guided the selection of the starting dose level for the 28-day continuous schedule, when information on dose limiting toxicity or maximum tolerated dose was still unavailable.

[2] = system: peripheral blast / bone marrow blast
Method: The samples were then flash frozen in −70° C. A small number of patient samples were frozen unlysed and lysed afterwards.

## CC(C)(C)c1cc(NC(=O)Nc2ccc(-c3cn4c(n3)sc3cc(OCCN5CCOCC5)ccc34)cc2)no1 [AC220]
[1]
  maximum tolerated dose: > 300 mg per day
[2]; Patient A
  bone marrow blast percentage: appeared to reduce bone marrow blast percentage
[2]; Patient D
  protocol defined response: CRp/PR
[2]; Patient E
  protocol defined response: CRi
